Experimental data reported in patent publication US20140051685A1, “THERAPEUTIC TREATMENT FOR METABOLIC SYNDROME, TYPE 2 DIABETES, OBESITY OR PREDIABETES” (priority 2010, published 2014).

Tests used:
[1] = tested on: female ob/ob obese diabetic mice; assay: Bromocriptine plus GBR 12909 in ob/ob mice; format: in vivo; settings: BC 10 mg/kg, GBR 12909 20 mg/kg, daily 14 days, relative to vehicle, FIG. 10
Method: The effects of adding GBR (a selective dopamine reuptake inhibitor) to bromocriptine (a dopamine D2 receptor agonist that can reduce central norepinephrine neuronal activity) in an effort to circumvent the impact of the D2 receptor agonist effect to reduce endogenous dopamine and to therefore improve metabolic disorders was examined in ob/ob mice treated with either vehicle, bromocriptine (BC) (10 mg/kg), GBR 12909 (20 mg/kg) or bromocriptine (10 mg/kg) plus GBR 12909 (20 mg/kg). Female ob/ob obese diabetic mice were fed standard chow and different groups of animals (n=5-7 group) were treated daily for 14 days with bromocriptine (to reduce norepinephrine neuronal activity) (10 mg/kg), GBR 12909 (to increase dopaminergic neuronal activity) (20 mg/kg) or with bromocriptine (10 mg/kg) plus GBR 12909 (20 mg/kg), or vehicle. […] BC had no effect on blood glucose level.

[2] = tested on: mice fed a high fat diet for 20 weeks; assay: Bromocriptine plus GBR 12909 in mice fed a high fat diet; format: in vivo; settings: BC 5 mg/kg, GBR 12909 5 mg/kg
Method: The effects of adding GBR (a selective dopamine reuptake inhibitor) to bromocriptine (a dopamine D2 receptor agonist that can reduce central norepinephrine neuronal activity) in an effort to circumvent the impact of the D2 receptor agonist effect to reduce endogenous dopamine and to therefore improve metabolic disorders was examined in mice fed a high fat diet for 20 weeks and then treated with either vehicle, bromocriptine (BC) (5 mg/kg), GBR 12909 (5 mg/kg) or bromocriptine (5 mg/kg) plus GBR 12909 (5 mg/kg). […] Again, increasing central dopaminergic neuronal activity and decreasing central norepinephrine neuronal activity simultaneously produces synergistic reductions in metabolic disorders. […] BC alone had no effect on plasma insulin level (FIG. 21).

With `CC(C)C[C@H]1C(=O)N2CCC[C@H]2[C@]2(O)O[C@](NC(=O)[C@@H]3C=C4c5cccc6[nH]c(Br)c(c56)C[C@H]4N(C)C3)(C(C)C)C(=O)N12` [bromocriptine] the blood glucose level [1] was “no effect”, the plasma insulin level ([2]; FIG. 21) was “no effect” and the “HOMA-IR (insulin resistance)” value ([2]; FIG. 22) was “no significant effect”.
